The text below walks through data of the Bradley open melting point set (2014).

A word on the melting point: it is the temperature, or range, at which the solid turns liquid.

“And” between values parts separate entries of the source, which are not always exact repeats. Equal entries are not always repeated.

`OCCOCCO` [diethylene glycol] showed a melting point of -10 °C.
With `Brc1cscc1Br` [3,4-dibromothiophene] the figure was 5 °C.
With `COc1ccc(Cl)cc1C(=O)NCCc1ccc(S(=O)(=O)NC(=O)NC2CCCCC2)cc1` [glybenzcyclamide], the melting point worked out at 173 °C.
Regarding `COc1ccc(-c2csc(C(C#N)=Cc3ccco3)n2)cc1`, the melting point is 116 °C.
For the compound `Cc1ccc(Cl)c(Cl)c1` [3,4-dichlorotoluene], the melting point is -15 °C.
The figure for `CCNc1nc(Cl)nc(NCC)n1` [2-chloro-4,6-bis(ethylamino)-1,3,5-triazine] is 228 °C; for `CCCC(C)C1(CC)C(=O)NC(=O)NC1=O` (centres undefined) [pentobarbital] it is 130 °C; for `ClC5(Cl)[C@]3(Cl)C(\Cl)=C(\Cl)[C@@]5(Cl)[C@H]4[C@H]1C[C@H]([C@@H]2O[C@H]12)[C@@H]34` [dieldrin] it is 175 °C.
Take `CC(=O)c1ccccc1[N+](=O)[O-]` [o-nitroacetophenone]: the melting point turned out to be 30 °C.
With `CC(C)(C)OC(=O)N[C@H](Cc1ccccc1)C(=O)O` [N-boc-D-phenylalanine] the figure was 87 °C; with `Cc1ccc(CCc2ccc(C)cc2)cc1` [4,4'-Dimethylbibenzyl], 78 °C.
`Cc1cc(Cl)ccc1O` [4-chloro-2-methylphenol]: the melting point came out at 47 °C.
Regarding `OB(O)c1cc(C(F)(F)F)cc(C(F)(F)F)c1` [3,5-bis(trifluoromethyl)benzeneboronic acid], the melting point stood at 222 °C.
The figure for `CCCCOc1ccc(CC(=O)NO)cc1` [bufexamac] is 153 °C; for `C/C=C/C1Nn2c(nnc2-c2ccccc2OC)S1` (centres undefined) it is 125 °C; for `OCc1ccco1` [furfuryl alcohol] it is -31 °C.
The figure for `CN1CCN(C2CCNCC2)CC1` [1-methyl-4-(4-piperidinyl)piperazine] is 55 °C; for `CC1(C)OC(=O)NC1=O` [5,5-dimethyloxazolidine-2,4-dione] it is 79 °C.
The figure for `CCCCCCCCCN` [1-nonylamine] is -1 °C.
As to `CCCSCCC` [di-n-propyl sulfide], the melting point is -102 °C.
Regarding `O=C1CCC(N2C(=O)c3ccccc3C2=O)C(=O)N1` (centres undefined) [thalidomide], the melting point was 270 °C and 275 °C.
With `O=C(CO)[C@H](O)[C@@H](O)[C@H](O)CO` [D-Sorbose] the figure was 95 °C.
The figure for `CCCCCCCCCCCCCCCCCCC` [N-nonadecane] is 33 °C; for `C=CCNC(N)=S` [1-Allylthiourea] it is 71 °C.
For the compound `CC(=O)Nc1ccc([N+](=O)[O-])cn1` [2-acetamido-5-nitropyridine], the melting point is 200 °C.
The figure for `C=Cc1ccc(C)cc1` [1-Methyl-4-vinylbenzene] is -72.5 °C; for `COc1ccc(N=C=S)c([N+](=O)[O-])c1` [4-methoxy-2-nitrophenyl isothiocyanate] it is 92 °C.
The compound `C[C@]12CCC(=O)C[C@H]1CC[C@@H]1[C@@H]2CC[C@]2(C)C(=O)CC[C@@H]12` [(5beta)-Androstane-3,17-dione] returned a melting point of 147 °C.
The figure for `O=C(O)c1ccc(-c2cccc([N+](=O)[O-])c2)cc1` [3'-nitrobiphenyl-4-carboxylic acid] is 314 °C; for `CCOC(=O)/C(C#N)=C\c1ccc(-c2ccccc2OC)o1` [Ethyl (2Z)-2-cyano-3-[5-(2-methoxyphenyl)-2-furyl]acrylate] it is 121 °C.
With `Oc1ccc(Cl)cc1` [p-chlorophenol] the figure was 44 °C; with `O=C(O)Cc1cccc([N+](=O)[O-])c1` [m-nitro_phenylacetic_acid], 119 °C.
`O=[N+]([O-])c1ccc(Oc2ccccc2)cc1` [4-nitrophenyl phenyl ether] displayed a melting point of 55 °C.
The figure for `Cc1cc(Cl)nc(Cl)c1C#N` [2,6-dichloro-4-methylnicotinonitrile] is 113 °C; for `CC(=O)OC1=c2ccccc2=NC1c1ccccn1` (centres undefined) [2-pyridin-2-yl-1H-indol-3-yl acetate] it is 130 °C; for `CC(C)SC(C)C` [Diisopropyl sulfide] it is -106 °C.
The figure for `Cc1cc(/C=C2\S/C(=N\c3ccccc3)N(c3ccccc3)C2=O)c(C)n1-c1ccc(C(F)(F)F)cc1` [OSM-S-52] is 226 °C; for `Oc1ccc(Cl)cc1-c1cc[nH]n1` [4-chloro-2-(1h-pyrazol-3-yl)phenol] it is 157 °C.
The figure for `CCCCCCCCc1ccccc1` [N-octylbenzene] is -36 °C; for `CC1(C)[C@H]2CC[C@]1(C)C(=O)C2` [(1S)-camphor] it is 178 °C; for `ClCC1CO1` (centres undefined) [epichlorohydrin] it is -57 °C.
`CN(C)c1ccc(C=O)c(Cl)c1` [2-chloro-4-dimethylaminobenzaldehyde] displayed a melting point of 80 °C.
With `CCCCCCCCCCCCCCCCCCCCCCCCCCCCCC` [N-triacontane] the figure was 67 °C; with `COC(=O)c1cc(O)c(O)c(O)c1` [methyl 3,4,5-trihydroxybenzoate], 201 °C.
The figure for `O=C(O)c1ccc(Cl)c([N+](=O)[O-])c1` [4-chloro-3-nitrobenzoic acid] is 183 °C.
The figure for `COc1ccc(C(=O)c2ccccc2)cc1` [4-methoxybenzophenone] is 62 °C; for `C=CCNC(N)=S` [N-allylthiourea] it is 74 °C.
The compound `CCN1CCNC(=O)C1=O` [1-ethylpiperazine-2,3-dione] returned a melting point of 110 °C.
In the case of `Cc1cc(Cl)c(Cl)cc1Cl` [2,4,5-Trichlorotoluene], the melting point came to 82.4 °C.
With `C=CCCCCC` [1-heptene] the figure was -119 °C; with `ClCC(Cl)Cl` [1,1,2-Trichloroethane], -35 °C.
`NC(=O)C1c2ccccc2Oc2ccccc21` [xanthene-9-carboxamide]: the melting point was 245 °C.
With `COCC(=O)N(c1c(C)cccc1C)C(C)C(=O)OC` (centres undefined) [metalaxyl] the figure was 72 °C; with `O=C1OS(=O)(=O)c2ccccc21` [2-sulfobenzoic anhydride], 120 °C.
The figure for `Cc1ccc(C(C)C)cc2c(C)ccc1-2` [guaiazulene] is 32 °C.
The figure for `O=[N+]([O-])c1ccc(CS(=O)(=O)Cl)cc1` [4-nitro-alpha-toluenesulfonyl chloride] is 92 °C.
Consider `Oc1ccc(cc1)C(CC)=C(/CC)c2ccc(O)cc2` [Diethylstilbestrol], for which the melting point was determined as 170 °C.
The figure for `O=C(O)c1ccc(Cl)c(Cl)c1` [3,4-dichlorobenzoic_acid] is 208 °C; for `c1ccc(Oc2ccccc2)cc1` [Diphenyl ether] it is 27 °C; for `NC(Cc1ccccc1)C(=O)O` (centres undefined) [phenylalanine] it is 186 °C.
The figure for `CCC(C)N` (centres undefined) [2-aminobutane] is -104 °C; for `Cc1cccc[n+]1[O-]` [2-picoline n-oxide] it is 48 °C; for `c1ccc2c(c1)sc1ccccc12` [dibenzothiophene] it is 99 °C.
With `Cc1cc(C)c(C)cc1C` [1,2,4,5-tetramethylbenzene] the figure was 80 °C.
`O=Cc1cc(Cl)ccc1O` [5-chlorosalicylaldehyde] yielded a melting point of 101 °C.
As to `O=Cc1ccc([N+](=O)[O-])cc1[N+](=O)[O-]` [2,4-dinitrobenzaldehyde], the melting point was 67 °C.
The figure for `CCc1ccc(-c2ccccc2)cc1` [1-ethyl-4-phenylbenzene] is 47 °C; for `COC(=O)CCC(C)C1CCC2C3C=CC4CC(OC(C)=O)CCC4(C)C3CC(OC(C)=O)C12C` (centres undefined) [methyl 3,12-bis(acetyloxy)chol-6-en-24-oate] it is 84 °C.
With `NC(=O)c1ccccc1-c1ccccc1` [o-phenylbenzamide] the figure was 177 °C; with `O=C1CCN(c2ccccc2)N1` [1-Phenylpyrazolidin-3-one], 122 °C; with `O=C(O)Cc1ccc(O)c(F)c1` [3-fluoro-4-hydroxyphenylacetic acid], 132 °C.
The figure for `Cc1c(C)c(C)c(C)c(C)c1C` [hexamethylbenzene] is 164 °C.
On to `O=C(C1CCCCC1)N1CC(=O)N2CCc3ccccc3C2C1` (centres undefined) [praziquantel], for which the melting point came to 136 °C.
Consider `O=[N+]([O-])c1cc([N+](=O)[O-])c(C(Br)=Cc2ccccc2)cc1/C=C\c1ccccc1`, for which the melting point came to 175 °C.
The figure for `Brc1cc(Br)cc(Br)c1` [1,3,5-Tribromobenzene] is 122 °C; for `Cc1ccccc1N1CCNCC1` [1-(o-tolyl)piperazine] it is 47 °C.
With `CC12CCC3C(C1CCC2=O)C1(CC2CC(=O)CCC23C)OCCO1` (centres undefined) the figure was 207 °C.
With `Nc1cc(C(F)(F)F)ccc1Cl` [2-chloro-5-(trifluoromethyl)aniline], the melting point stood at 9 °C.
Compound `C[SiH](C)O[Si](C)(C)O[SiH](C)C` [1,1,3,3,5,5-hexamethyltrisiloxane] displayed a melting point of -67 °C.
In the case of `O=S(=O)(O)O` [Sulfuric acid], the melting point was -2 °C.
With `CC(C)c1ncc([N+](=O)[O-])n1C` [Ipronidazole] the figure was 61 °C; with `C(=C/C#N)C#N` [fumaronitrile], 97 °C.
For `OCc1cc(Cl)ccc1O` [5-chloro-2-hydroxybenzyl alcohol], the melting point came to 86 °C.
With `CCC(=O)OC` [methyl propionate] the figure was -88 °C; with `COc1cc2nnc(/C=C/C(C)=O)c(-c3ccc(C)o3)c2cc1OC`, 170 °C.
The figure for `CCc1nnc(N)s1` [5-Ethyl-1,3,4-thiadiazol-2-amine] is 201 °C; for `CCCCOC(=O)c1ccc(N)cc1` [butyl p-aminobenzoate] it is 58 °C.
Consider `N#Cc1cccc(C=O)c1` [3-cyanobenzaldehyde], for which the melting point is 77 °C.
With `CCOc1ccc(NC(C)=O)cc1` [phenacetin] the figure was 138 °C and 135 °C (2×).
